# According to patent US20220362396A1, “AMINO-PYRAZINECARBOXAMIDE COMPOUNDS, CONJUGATES, AND USES THEREOF” (Silverback Therapeutics, Inc., priority 2018, published 2022):
# “Also recorded” adds a separate entry of the source.
# B1: anti-LRRC15 humanized IgG1 M25 antibody with Fc null domain conjugated to LP1 (antibody, V domains shown)
# VH: EVQLVQSGAEVKKPGASVKVSCKASGYKFSSYWIEWVKQAPGQGLEWIGEILPGSDTTNYNEKFKDRATFTSDTSINTAYMELSRLRSDDTAVYYCARDRGNYRAWFGYWGQGTLVTVSS
# VL: DIQMTQSPSSLSASVGDRVTITCRASQDISNYLNWYQQKPGGAVKFLIYYTSRLHSGVPSRFSGSGSGTDYTLTISSLQPEDFATYFCQQGEALPWTFGGGTKVEIK
# modifications: linker-payload LP1 on interchain disulfide cysteines, average DAR 2.5-4
# B2: anti-LRRC15 humanized IgG1 M25 antibody with Fc null domain conjugated to LP10 (antibody, V domains shown)
# VH: EVQLVQSGAEVKKPGASVKVSCKASGYKFSSYWIEWVKQAPGQGLEWIGEILPGSDTTNYNEKFKDRATFTSDTSINTAYMELSRLRSDDTAVYYCARDRGNYRAWFGYWGQGTLVTVSS
# VL: DIQMTQSPSSLSASVGDRVTITCRASQDISNYLNWYQQKPGGAVKFLIYYTSRLHSGVPSRFSGSGSGTDYTLTISSLQPEDFATYFCQQGEALPWTFGGGTKVEIK
# modifications: linker-payload LP10 on interchain disulfide cysteines, average DAR 2.5-4
# What was measured:
# [1] = test system: TGFβ/SMAD Signaling Pathway SBE reporter cell line; assay: TGFβ reporter assay, in vitro small molecule screening (luciferase); format: cell-based; settings: TGFβ stimulation, luminescence
# Method in brief: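 SBE luciferase reporter cells (~0.5×10^6 cells/mL) preincubated with compound 5-6 h at 37 °C in 0.5% FBS MEM, then stimulated with TGFβ (12 ng/mL stock) for 18 h. Luminescence read after luciferase substrate; EC50 from curve fits.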
# TGFBR2 = molecular target: T1, TGFBR2 (Homo sapiens, UniProt P37173); assay: TGFBR2 RBC assay (enzyme inhibition assay, Reaction Biology Corp.); format: biochemical
# T1 construct: purchased Reaction Biology Corp
# T1 sequence (P37173 23-567): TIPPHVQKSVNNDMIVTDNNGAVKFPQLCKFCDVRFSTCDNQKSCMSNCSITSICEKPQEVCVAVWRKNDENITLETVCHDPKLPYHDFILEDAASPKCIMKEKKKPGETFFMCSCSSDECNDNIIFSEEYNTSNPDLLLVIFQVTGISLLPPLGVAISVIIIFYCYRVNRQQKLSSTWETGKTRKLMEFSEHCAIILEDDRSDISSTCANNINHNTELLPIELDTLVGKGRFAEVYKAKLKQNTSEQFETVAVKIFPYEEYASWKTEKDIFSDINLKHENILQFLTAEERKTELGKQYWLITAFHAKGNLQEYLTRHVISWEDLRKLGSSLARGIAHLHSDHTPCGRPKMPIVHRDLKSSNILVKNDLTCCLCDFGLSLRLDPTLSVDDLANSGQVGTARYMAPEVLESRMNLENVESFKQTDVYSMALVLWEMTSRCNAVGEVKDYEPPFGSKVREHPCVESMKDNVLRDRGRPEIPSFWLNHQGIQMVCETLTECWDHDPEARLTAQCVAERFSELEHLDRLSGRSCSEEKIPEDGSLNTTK
# Protocol: Compounds of the disclosure were also assayed by Reaction Biology Corp. using the TGFBR2 RBC assay (enzyme inhibition assay). […] NT refers to not tested.
# [2] = test system: TGFβ-inducible genes in PANC-1 tumors; assay: Intra-tumoral injection of TGFβR2 inhibitors, PANC-1 xenograft, RT-qPCR of tumors; format: in vivo, nude mice; settings: PANC-1, 2 ug intra-tumoral QD5, tumors 4 h after last injection, vs DMSO vehicle
# Protocol: (§1) TGFβR2 inhibitors were tested for their ability to alter expression in vivo of a set of genes reported to be regulated by TGFβ, particularly those associated with tumor CAFs. Two million BXCP3 (ATTC) or 5 million PANC-1 (ATTC) cells in Matrigel (Corning Life Sciences) were inoculated into the flanks of nude mice (JAX Labs) and allowed to grow to approximately 100 mm3 in size before sorting into cohorts for treatment. BXPC3 tumors were treated by intra-tumoral injection (IT) of 2 ug QD5 of either compound 211, compound 171 or equal volume of DMSO vehicle while PANC-1 tumors received 2 ug injections QD5 of compound 211 or vehicle control. Four hours after the last injection tumors were removed and processed for RT-qPCR by homogenization in M tubes (Miltenyi Biotec) using Purelink RNA Kit (Ambion) to isolate RNA and Taqman® RNA to CT 1 Step Kit (Applied Biosystems) with a OneStepPlus Thermocycler. Gene specific primers were obtained from ThermoFisher Scientific. […] Data was analyzed and graphed using GraphPad Prism v8.1.0. Statistical difference for gene mRNA expression between TGFβR2 inhibitor and vehicle treated cohorts was determined using multiple T test comparison with discovery (FDR) by the two-stage linear step-up procedure of Benjamini, Krieger and Yekutieli, with Q=5%. Each row was analyzed individually, without assuming a consistent SD.
# [3] = test system: TGFβ-inducible genes in BXPC3 tumors; assay: Intra-tumoral injection of TGFβR2 inhibitors, BXPC3 xenograft, RT-qPCR of tumors; format: in vivo, nude mice; settings: BXPC3, 2 ug intra-tumoral QD5, tumors 4 h after last injection, vs DMSO vehicle
# Protocol: as §1
# [4] = test system: αSMA gene expression in LL97a cells; assay: qPCR of TGFβ-induced αSMA mRNA in LL97a IPF fibroblasts; format: cell-based, human; settings: small molecules, TGFβ 24 hours, concentration dependent
# Protocol: (§2) The ability of select small molecules to lower a TGFβ 1-induced mRNA were tested in assays with the cell line LL97a (ATCC) as follows. LL97a cells were seeded in 96 well plates at 10,000 cells/well in DMEM+10% FBS+1% NaPyr, +1% L-glut, +1% NEAA, +1% HEPES+0.5% Pen/Strep. The following day test articles and controls were added at varying concentrations in assay media of DMEM+0.5% BSA along with 0.5 ng/mL TGFβ1 (PeproTech Inc.) was added to wells. After 24 hours or 48 hours incubation with TGFβ1 at 37 C in a 5% CO2 environment RNA was prepared from cells and QPCR performed for the TGFβ-inducible genes αSMA and elastin as well as the non-inducible control gene RPLPO with a Tagman® Gene Expression Cells-to-CT 1—Step Kit (Life Technologies Inc.) and with a One Step Plus Thermocycler (Applied Biosystems) as per manufacturers' recommendations. Primer probe sets were obtained from ThermoFisher Scientific.
# Compounds 2.1 and 171 were covalently attached to an anti-LRRC15 antibody using different protease cleavable PABC linkers. […] Average DAR level of the purified species was determined by analysis via hydrophobic interaction chromatography (HIC) using TSK-gel butyl NPR (Tosoh Bioscience LLC) and by LCMS (Waters Corp.) and they were tested for their ability to reduce αSMA and elastin gene induction by TGFβ in the LL97a and NHLF human fibroblast cell lines using a qPCRassay. […]
# [5] = test system: elastin gene expression in LL97a cells; assay: qPCR of TGFβ-induced elastin mRNA in LL97a IPF fibroblasts; format: cell-based, human; settings: small molecules, TGFβ 24 hours, concentration dependent
# Protocol: as §2
# full length human LRRC15 = molecular target: T2, full length human LRRC15 (human, UniProt Q8TF66 22-581); assay: cell-based or functional assay
# T2 sequence (looked up): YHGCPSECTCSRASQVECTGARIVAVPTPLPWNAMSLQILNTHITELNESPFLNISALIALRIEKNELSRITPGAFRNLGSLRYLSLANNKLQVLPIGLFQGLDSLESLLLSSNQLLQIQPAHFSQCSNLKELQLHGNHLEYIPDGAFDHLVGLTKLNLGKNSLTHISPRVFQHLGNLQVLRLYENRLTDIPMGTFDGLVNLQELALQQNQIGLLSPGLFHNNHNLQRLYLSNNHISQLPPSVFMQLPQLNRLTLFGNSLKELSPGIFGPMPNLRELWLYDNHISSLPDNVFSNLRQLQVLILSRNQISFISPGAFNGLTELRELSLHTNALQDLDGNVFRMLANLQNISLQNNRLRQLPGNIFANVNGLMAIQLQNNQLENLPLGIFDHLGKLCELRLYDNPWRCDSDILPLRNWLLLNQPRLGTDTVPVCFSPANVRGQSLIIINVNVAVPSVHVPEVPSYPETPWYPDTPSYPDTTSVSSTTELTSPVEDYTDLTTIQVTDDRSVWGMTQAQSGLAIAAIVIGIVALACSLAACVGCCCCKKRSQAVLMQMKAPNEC
Molecule,EC50 [1] [nM],IC50 (TGFBR2) [nM],also measured
CC(CN)Oc1ccc(-c2cnc(N)c(C(=O)Nc3cnccc3N3CCOCC3)n2)cc1 (centres unmarked) [Compound 211],< 50,< 50,mRNA level of TGFβ-inducible genes in tumors [2]: reduces the mRNA level; also recorded: decreased many TGFβ-inducible gene mRNAs; mRNA level of TGFβ-inducible genes in tumors [3]: reduce the mRNA level; also recorded: reduced the mRNA level of most TGFβ-inducible genes
Nc1ncc(-c2ccc3c(c2)C(O)CC3)nc1C(=O)Nc1cnccc1N1CCOCC1 (centres unmarked) [Compound 250],100 to 1000,< 50,inhibition of TGFβ-induction of αSMA gene expression [4]: inhibits; inhibition of TGFβ-induction of elastin gene expression [5]: inhibits
CN(CCNC(=O)OC(C)(C)C)c1ccc(-c2cnc(N)c(C(=O)Nc3cnccc3N3CCOCC3)n2)cc1 [Compound 267],100 to 1000,< 50,
Nc1ncc(-c2ccc(OCC[C@H](N)C(=O)O)cc2)nc1C(=O)Nc1cnccc1N1CCOCC1 [Compound 268],> 1000,< 50,
COC(=O)[C@H](N)CCOc1ccc(-c2cnc(N)c(C(=O)Nc3cnccc3N3CCOCC3)n2)cc1 [Compound 269],100 to 1000,< 50,
COC(=O)[C@@H](CCOc1ccc(-c2cnc(N)c(C(=O)Nc3cnccc3N3CCOCC3)n2)cc1)NC(=O)OCc1ccccc1 [Compound 270],100 to 1000,< 50,
NCCNc1ccc(-c2cnc(N)c(C(=O)Nc3cnccc3N3CCOCC3)n2)cc1 [Compound 271],100 to 1000,< 50,
CN(CCN)c1ccc(-c2cnc(N)c(C(=O)Nc3cnccc3N3CCOCC3)n2)cc1 [Compound 272],50 to 100,< 50,
CC(C)(C)OC(=O)N[C@H]1CCN(c2ccc(-c3cnc(N)c(C(=O)Nc4cnccc4N4CCOCC4)n3)cc2)C1 [Compound 273],100 to 1000,< 50,
CC(C)(C)OC(=O)N[C@@H]1CCN(c2ccc(-c3cnc(N)c(C(=O)Nc4cnccc4N4CCOCC4)n3)cc2)C1 [Compound 274],100 to 1000,< 50,
Nc1ncc(-c2ccc(OCC[C@@H](N)C(=O)O)cc2)nc1C(=O)Nc1cnccc1N1CCOCC1 [Compound 275],> 1000,50 to 100,
Nc1ncc(-c2ccc(OCC[C@@H](NC(=O)OCc3ccccc3)C(=O)O)cc2)nc1C(=O)Nc1cnccc1N1CCOCC1 [Compound 276],> 1000,< 50,
Nc1ncc(-c2ccc(N3CC[C@H](N)C3)cc2)nc1C(=O)Nc1cnccc1N1CCOCC1 [Compound 277],50 to 100,< 50,
Nc1ncc(-c2ccc(N3CC[C@@H](N)C3)cc2)nc1C(=O)Nc1cnccc1N1CCOCC1 [Compound 278],50 to 100,< 50,
Nc1ncc(-c2ccc(N3CCC(N)CC3)cc2)nc1C(=O)Nc1cnccc1N1CCOCC1 [Compound 279],50 to 100,< 50,
CC(C)(C)OC(=O)NC1CCN(c2ccc(-c3cnc(N)c(C(=O)Nc4cnccc4N4CCOCC4)n3)cc2)CC1 [Compound 280],100 to 1000,< 50,
B1,,,"absolute IC50 of TGFβ1-induced SMAD2 promoter luciferase activity, HEK293 reporter cells expressing human LRRC15 (full length human LRRC15): < 10 nM"
B2,,,"absolute IC50 of TGFβ1-induced SMAD2 promoter luciferase activity, HEK293 reporter cells expressing human LRRC15 (full length human LRRC15): < 10 nM"
